In ChEMBL document CHEMBL3769367, “Orexin Receptor Antagonists: New Therapeutic Agents for the Treatment of Insomnia” (J Med Chem, 2016):
Blank lines part the entries; values can stand above or below the compound they belong to.

What was measured:
[1] = molecular target: T1, Orexin receptor type 2 (Homo sapiens, UniProt O43614); assay: Binding affinity to OX2R (unknown origin)
T1 sequence (O43614 whole entry): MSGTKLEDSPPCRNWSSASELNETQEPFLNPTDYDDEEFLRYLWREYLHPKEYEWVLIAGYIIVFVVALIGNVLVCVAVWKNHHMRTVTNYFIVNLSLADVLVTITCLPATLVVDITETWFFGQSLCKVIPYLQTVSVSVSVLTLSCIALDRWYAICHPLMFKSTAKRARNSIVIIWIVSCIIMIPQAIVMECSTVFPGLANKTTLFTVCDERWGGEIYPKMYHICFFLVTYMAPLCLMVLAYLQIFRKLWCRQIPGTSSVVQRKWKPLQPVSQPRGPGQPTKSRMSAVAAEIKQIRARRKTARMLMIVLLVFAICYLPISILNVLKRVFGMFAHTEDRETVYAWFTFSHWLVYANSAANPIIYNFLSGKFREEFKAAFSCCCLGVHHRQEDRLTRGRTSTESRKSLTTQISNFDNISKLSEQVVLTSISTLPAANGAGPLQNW

[2] = molecular target: T2, Orexin/Hypocretin receptor type 1 (Homo sapiens, UniProt O43613); assay: Binding affinity to OX1R (unknown origin)
T2 sequence (O43613 whole entry): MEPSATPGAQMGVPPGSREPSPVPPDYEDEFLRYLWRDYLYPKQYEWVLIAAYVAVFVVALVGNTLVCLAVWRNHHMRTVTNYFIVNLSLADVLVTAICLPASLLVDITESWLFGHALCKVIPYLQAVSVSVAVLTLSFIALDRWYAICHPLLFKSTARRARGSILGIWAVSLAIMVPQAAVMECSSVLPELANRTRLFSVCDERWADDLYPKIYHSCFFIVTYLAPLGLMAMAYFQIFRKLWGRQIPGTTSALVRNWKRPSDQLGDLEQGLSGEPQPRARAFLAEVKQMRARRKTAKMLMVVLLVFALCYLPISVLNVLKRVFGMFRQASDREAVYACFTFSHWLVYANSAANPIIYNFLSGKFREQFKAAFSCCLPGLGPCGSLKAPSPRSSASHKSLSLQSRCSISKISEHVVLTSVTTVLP

[3] = molecular target: T2, Orexin/Hypocretin receptor type 1; assay: Antagonist activity at OX1R (unknown origin)
[4] = molecular target: T1, Orexin receptor type 2; assay: Antagonist activity at OX2R (unknown origin)
[5] = molecular target: T2, Orexin/Hypocretin receptor type 1; assay: Antagonist activity at human OX1R expressed in CHO cells assessed as inhibition of orexin-A-induced intracellular calcium release by FLIPR assay; type: functional, cell-based
[6] = molecular target: Cytochrome P450 3A4 (Homo sapiens, UniProt P08684); assay: Inhibition of CYP3A4 (unknown origin); type: ADME
Sequence of Cytochrome P450 3A4 (P08684 whole entry): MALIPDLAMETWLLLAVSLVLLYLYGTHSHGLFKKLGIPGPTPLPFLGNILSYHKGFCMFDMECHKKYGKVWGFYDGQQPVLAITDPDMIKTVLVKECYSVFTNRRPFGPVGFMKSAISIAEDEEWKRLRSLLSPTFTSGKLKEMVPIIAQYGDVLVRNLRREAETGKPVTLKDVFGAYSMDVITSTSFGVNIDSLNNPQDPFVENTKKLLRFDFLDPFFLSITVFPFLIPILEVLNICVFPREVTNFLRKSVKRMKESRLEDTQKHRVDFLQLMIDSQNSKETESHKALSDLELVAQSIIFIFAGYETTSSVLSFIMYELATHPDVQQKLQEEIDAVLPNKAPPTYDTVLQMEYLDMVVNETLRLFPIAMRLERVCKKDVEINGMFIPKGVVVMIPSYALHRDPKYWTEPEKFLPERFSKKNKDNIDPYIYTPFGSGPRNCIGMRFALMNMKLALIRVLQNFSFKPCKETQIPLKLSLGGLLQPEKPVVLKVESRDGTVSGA

[7] = molecular target: T1, Orexin receptor type 2; assay: Antagonist activity at human OX2R expressed in CHO cells assessed as inhibition of orexin-A-induced intracellular calcium release by FLIPR assay; type: functional, cell-based

Ki [1]: 16 nM
Ki [2]: 15 nM
SMILES: Cc1ccc(-n2nccn2)c(C(=O)N2CCCC(COc3ccc(F)c(C)c3)C2)c1 (stereo not given)

IC50 [3]: 630 nM
SMILES: COc1cccc(OC)c1C(=O)N1CCCN(c2nc3ccc(Cl)cc3s2)CC1

IC50 [4]: 14 nM
IC50 [3]: 12 nM
SMILES: Cc1nc(C(=O)N2CCCC[C@H]2CCOc2ccc(F)cc2)c(-c2ccccc2)s1

IC50 [5]: 21 nM
SMILES: CSc1cccc(NC(=O)[C@@H]2CCCN2S(=O)(=O)c2ccc(Br)s2)c1

IC50 [6]: 8000 nM
IC50 [5]: 31 nM
IC50 [7]: 7 nM
SMILES: COc1ccc(S(=O)(=O)N2CCC[C@H]2C(=O)Nc2cccc(SC)c2)cc1

IC50 [4]: 18 nM
IC50 [3]: 13 nM
SMILES: CCN(CCN(C)c1nc2ccccc2o1)C(=O)c1cc(C)ccc1-n1nccn1

Ki [1]: 4 nM
Ki [2]: 8 nM
SMILES: Cc1nc(C(=O)N2CCCCC2CCOc2ccc(F)cc2)c(-c2ccccc2)s1 (stereo not given)

IC50 [4]: > 10000 nM
IC50 [3]: 17 nM
SMILES: COc1ccc(CC2c3cc(OC(C)C)c(OC)cc3CCN2CC(=O)NCc2ccccc2)cc1OC (stereo not given)
